Laboratory results from PMC4974627 (Biochemistry, 2016).

How the values were obtained:
[1] = molecular target: T1, AtGSNOR (Arabidopsis GSNOR) (Arabidopsis thaliana, UniProt Q96533); test: time-dependent loss of activity on GSNO incubation; format: biochemical; conditions: covalent (presumed S-nitrosation); 1 mM GSNO, 20 µM protein
[2] = molecular target: ScSFA1 (yeast GSNOR, Sensitive to Formaldehyde 1) (Saccharomyces cerevisiae, UniProt P32771, C12A); test: residual activity after CysNO versus CysSH treatment; format: biochemical; conditions: covalent (S-nitrosation); 2 mM CysNO
[3] = molecular target: T1, AtGSNOR (Arabidopsis GSNOR); test: residual GSNO reductase activity after CysNO incubation; format: biochemical; conditions: covalent (S-nitrosation of Cys10, Cys271, Cys370), reversible by DTT; one hour
[4] = molecular target: AtGSNOR (Arabidopsis GSNOR) (Arabidopsis thaliana, UniProt Q96533, C271A); test: intact protein mass spectrometry; format: binding; conditions: covalent (S-nitrosation)
[5] = molecular target: AtGSNOR (Arabidopsis GSNOR) (Arabidopsis thaliana, UniProt Q96533, C370A); test: intact protein mass spectrometry; format: binding; conditions: covalent (S-nitrosation)
Sequence of AtGSNOR (Arabidopsis GSNOR) (Arabidopsis thaliana, UniProt Q96533, C370A) (Q96533 2-379 C370A): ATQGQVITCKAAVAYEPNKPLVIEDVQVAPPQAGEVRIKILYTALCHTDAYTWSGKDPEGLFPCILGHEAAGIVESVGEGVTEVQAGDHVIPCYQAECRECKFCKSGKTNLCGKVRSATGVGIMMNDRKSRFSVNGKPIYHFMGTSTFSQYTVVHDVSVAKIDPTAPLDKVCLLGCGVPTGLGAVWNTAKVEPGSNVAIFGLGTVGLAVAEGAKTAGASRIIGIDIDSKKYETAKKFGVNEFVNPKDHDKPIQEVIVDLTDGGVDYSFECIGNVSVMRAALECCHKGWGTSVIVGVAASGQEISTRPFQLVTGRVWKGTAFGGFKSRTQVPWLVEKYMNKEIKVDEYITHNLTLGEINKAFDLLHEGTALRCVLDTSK

T1 sequence (Q96533 2-379): as the sequence (Q96533 2-379 C370A) above, with A369C counted along it
Sequence of AtGSNOR (Arabidopsis GSNOR) (Arabidopsis thaliana, UniProt Q96533, C271A) (Q96533 2-379 C271A): as the sequence (Q96533 2-379 C370A) above, with C270A, A369C counted along it
Sequence of ScSFA1 (yeast GSNOR, Sensitive to Formaldehyde 1) (P32771 whole entry C12A): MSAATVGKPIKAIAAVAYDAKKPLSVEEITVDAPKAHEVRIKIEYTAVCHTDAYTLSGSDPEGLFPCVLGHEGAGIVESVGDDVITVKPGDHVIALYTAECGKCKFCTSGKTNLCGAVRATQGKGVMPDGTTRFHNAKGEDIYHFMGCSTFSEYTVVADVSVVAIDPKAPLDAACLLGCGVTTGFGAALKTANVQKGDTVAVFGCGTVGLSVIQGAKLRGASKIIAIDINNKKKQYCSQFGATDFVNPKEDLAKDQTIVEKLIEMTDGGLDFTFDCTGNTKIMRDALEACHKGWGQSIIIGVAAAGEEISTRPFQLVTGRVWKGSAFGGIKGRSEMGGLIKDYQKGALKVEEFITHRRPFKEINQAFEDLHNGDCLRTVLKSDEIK

% decrease in activity at 125 μM [3]	Structure (SMILES)	time-dependent loss of activity on GSNO incubation [1]	residual activity after CysNO versus CysSH treatment [2]	intact protein mass spectrometry (+29 Da adducts) [4]	intact protein mass spectrometry (+29 Da adducts) [5]
	N[C@@H](CCC(=O)N[C@@H](CSN=O)C(=O)NCC(=O)O)C(=O)O [GSNO]	Incubation with GSNO caused a time-dependent decrease in the specific activity of unmodified AtGSNOR			
~ 40%	N[C@@H](CSN=O)C(=O)O [CysNO]		ScSFA1^C12A and HsGSNOR^C8A were as sensitive to nitrosation as their corresponding wild-types	only two adducts were observed for single cysteine mutants (Fig. 2F, H, J)	only two adducts were observed for single cysteine mutants (Fig. 2F, H, J)
